Laboratory results published in US20250082760A1 (priority 2020, published 2025).
In brackets after ≈: the same amount, converted by molar mass. Read-outs that look alike come from different tables or passages of the source.

Legend:
[1] = water solubility experiments; type: physicochemical
[2] = test system: convulsions in mice induced by electrical stimulation; experiment: anticonvulsant effect on mice induced by electrical stimulation; type: in vivo
Experimental: (1) Divide 40 mice (20♀20) into 5 groups at random, with 8 mice (4♀4) in each group, and label No. 1 to No. 8 with picric acid respectively; (2) All mice were tested according to the order of groups and labels electrical stimulation, the initial voltage was 40V, the voltage was increased by 2.5V each time, the time interval between two electrical stimulations for the same mouse was 20 min, the threshold voltage value of convulsion and the time from convulsion to complete recovery were recorded, and the dead mice were discarded, qualified mice were screened; (3) After screening, 7 mice (2♀5) in the 40 mice could not recover after convulsions and died, and the remaining 33 qualified mice […]; (4) From standby 7 mice were screened out as a supplement, and the number of the dead mice in step (2) was marked with picric acid and added to the corresponding groups, so that a total of 40 (20♀20) qualified mice in 5 groups were finally obtained., all mice were weighed and recorded.
Positive drug: sodium valproate (specification 0.2 g), take 1 tablet in a mortar, add 20 ml of 0.5% CMC-Na solution while grinding, to a suspended state, set EP tube for use; test drug (compound 5): Dissolve in distilled water to 5, 10, and 20 mg/ml solutions, respectively, and set EP tubes for later use.
Electrical stimulation was performed 1.5 hours after the last administration, and each mouse was given the threshold voltage measured before to observe the experimental phenomenon and record whether there was convulsions and death occurred.
The first group was the blank control group, which was given 0.4 ml/20 g of 0.5% CMC-Na by gavage; the second group was the positive drug control group, which was given sodium valproate 200 mg/kg by gavage; the third group was the test drug the low-dose group, which was given 100 mg/kg of compound 5 by gavage; the fourth group was the test drug medium-dose group, which was given 200 mg/kg of compound 5 by gavage; the fifth group was the test drug high-dose group, which was given 400 mg/kg of compound 5 by gavage.
1.5 h after the last administration, electrical stimulation was performed according to the threshold voltage measured before each mouse, the experimental phenomenon was observed, and the occurrence of convulsions and death were recorded. If convulsion occurs, record the time of complete recovery; if no convulsion occurs, continue to increase the voltage with a gradient of 2.5V to measure the current threshold voltage value and recovery time.
Strictly follow the 5 periods of convulsion in mice, namely, latency period, rigid flexion period, hindlimb extension period, clonic period and recovery period to judge whether the mice have convulsions after electrical stimulation, and the phenomenon of death can not be recovered after convulsions.

[3] = test system: hot plate pain threshold in ICR mice; experiment: hot plate method, compound 2, intravenous administration; type: in vivo; settings: for Pain threshold before administration: baseline; for Pain threshold before administration / Pain threshold after administration: X ± SD
Experimental: 20 ICR mice, 18-22 g, half male and half male, were purchased from the animal room of Xi′an Jiaotong University School of Medicine; rearing conditions: room temperature 18-20° C., same-sex cages, 12-hour light, regular ventilation, conventional full-price solid feed feeding, and the bedding was changed every two days; 20 mice were randomly divided into 2 groups (low-dose test drug group, test drug high-dose group), 10 mice in each group […].
An appropriate amount of compound 2 was accurately weighed and dissolved in 5% glucose water to prepare a concentration of 2 mg/ml (dissolved state is good, basically transparent), which was utilized as a mother solution. During the test, according to the test requirements, it was diluted with 5% glucose aqueous solution to an appropriate concentration.
The first group was the high-dose test drug group, and the test drug was given 10 mg/kg by tail vein injection; the second group was the low-dose test drug group, and the test drug was given 3 mg/kg by tail vein injection.
(§1) The mice were placed in a hot plate apparatus at a temperature of 55±0.5° C., and the pain thresholds of the mice were measured and recorded before administration, 30 minutes after administration, 60 minutes after administration, and 120 minutes after administration.

[4] = test system: hot plate pain threshold in mice; experiment: hot plate method, compound 1, intragastric administration; type: in vivo; settings: for Pain response time Before administration: baseline, n 10; for Pain response time Before administration / Pain response time After administration: X ± SD; for Pain response time After administration / Pain response time extension rate: 60 min after administration; for Pain response time extension rate: blank group 3.9 ± 6.6
Experimental: All the mice participating in the experiment were subjected to hot plate pain threshold detection before the experiment, and qualified mice with pain threshold of 10-40 s were screened.
Accurately weigh an appropriate amount of compound 1, dissolve it in distilled water and prepare a mother liquor of 100 mg/ml, then dilute to 1.25 mg/ml (25 mg/kg), 2.5 mg/ml (50 mg/kg) with double distilled water respectively; accurately weigh an appropriate amount of the positive control drug gabapentin, dissolve in distilled water and prepare a 100 mg/ml mother solution, and then dilute to 10 mg/ml (200 mg/kg) with double distilled water. All medicines are prepared and utilized as needed.
40 only qualified mice were divided into 4 groups, half male and half female in each group. The first group is the blank group, no administration; the second group is the positive control (gabapentin) 25 mg/kg group; the third group is the test drug 25 mg/kg group; the fourth group is the test drug 50 mg/kg group 4. All were administered by gavage.
The mice were placed in a hot plate apparatus at a temperature of 55±0.5° C., and the pain thresholds of the mice were measured and recorded before administration and 60 min after administration.

[5] = test system: hot plate pain threshold in ICR mice; experiment: hot plate method, compound 1, intravenous administration; type: in vivo; settings: for Pain threshold before administration: baseline; for Pain threshold before administration / Pain threshold after administration: X ± SD
Experimental: 20 ICR mice, 18-22 g, half male and half male, were purchased from the animal room of Xi′an Jiaotong University School of Medicine; rearing conditions: room temperature 18-20° C., same sex rearing in separate cages, 12-hour light, regular ventilation, conventional full-price solid feed feeding, bedding changed every two days; 20 mice were randomly divided into 2 groups (low-dose test drug group, test drug high-dose group) with 10 mice in each group (5 ♀5).
An appropriate amount of compound 1 was accurately weighed and dissolved in 0.9% physiological saline to prepare a concentration of 5 mg/ml (dissolved state is good, basically transparent), which was used as a mother solution. During the test, according to the test requirements, diluted with normal saline to an appropriate concentration.
The first group was the low-dose test drug group, and the test drug was given 10 mg/kg by tail vein injection; the second group was the test drug high-dose group, and the test drug was given 15 mg/kg by tail vein injection.
as §1

[6] = 10 mg/kg tail vein group, hot plate 55±0.5° C.

Structure (SMILES): CC(C)c1cc(I)cc(C(C)C)c1OC(=O)NCC1(CC(=O)O)CCCCC1 [Compound 4]
- solubility [1]: 40 µg/mL (≈ 79.8 µM)
- logP (physchem): 3.52

Structure (SMILES): CCCC(CCC)C(=O)[O-].[Na+] [sodium valproate, reference compound]
- anti-electrical convulsion ability (threshold voltage increase) ([2]; compared with blank group, sodium valproate 200 mg/kg gavage, 1.5 h after last administration, p<0.05): significantly improve
- weight gain of mice ([2]; mouse, in vivo): no difference

Structure (SMILES): CC(C)c1cccc(C(C)C)c1OC(=O)CC1(C[N+](C)(C)C)CCCCC1 [Compound 6, (1-(2-(2,6-diisopropylphenoxy)-2-oxoethyl)cyclohexyl)-N,N,N-tri-methylmethanaminium iodide]
- solubility [1]: 900 µg/mL
- logP (physchem; fat/water partition (phases not further specified)): 1.54

Structure (SMILES): CC(C)c1cccc(C(C)C)c1OC(=O)NCC1(CC(=O)O)CCCCC1 [Compound 3]
- solubility [1]: 80 µg/mL (≈ 213 µM)
- logP (physchem): 2.38

Structure (SMILES): CC(C)c1cc(I)cc(C(C)C)c1OC(=O)CC1(CN)CCCCC1.Cl [Compound 2, 4-iodo-2,6-diisopropylphenyl 2-(1-(aminomethyl)cyclohexyl)acetate hydrochloride]
- solubility [1]: 13000 µg/mL
- logP (physchem): 1.66
- Pain threshold before administration ([3]; 3 mg/kg tail vein group): 11.33 ± 4.08 s
- Pain threshold after administration ([3]; 3 mg/kg tail vein, 30 min): 12.41 ± 3.67 s
- Pain threshold after administration ([3]; 3 mg/kg tail vein, 60 min): 10.16 ± 3.38 s
- Pain threshold after administration ([3]; 3 mg/kg tail vein, 120 min): 6.47 ± 5.40 s
- Pain threshold before administration [3, 6]: 13.18 ± 3.33 s
- Pain threshold after administration ([3]; 10 mg/kg tail vein, 30 min): 18.10 ± 5.96 s
- Pain threshold after administration ([3]; 10 mg/kg tail vein, 60 min): 13.98 ± 6.78 s
- Pain threshold after administration ([3]; 10 mg/kg tail vein, 120 min): 14.18 ± 6.90 s
- analgesic effect in the hot plate test ([3]; intravenous, at 10 mg/kg performed well 30 minutes after injection): good analgesic effect

Structure (SMILES): CC(C)c1cccc(C(C)C)c1OC(=O)CC1(CN)CCCCC1.Cl [Compound 1, 2,6-diisopropylphenyl 2-(1-(aminomethyl)cyclohexyl)acetate hydrochloride]
- solubility [1]: 18000 µg/mL
- logP (physchem): 1.1
- Pain response time Before administration ([4]; 25 mg/kg gavage group): 22.0 ± 10.2 s
- Pain response time After administration ([4]; 25 mg/kg gavage): 32.1 ± 14.5 s
- Pain response time extension rate ([4]; 25 mg/kg gavage): 59.3 ± 66.7 %
- Pain response time Before administration ([4]; 50 mg/kg gavage group): 20.0 ± 5.9 s
- Pain response time After administration ([4]; 50 mg/kg gavage): 40.2 ± 17.9 s
- Pain response time extension rate ([4]; 50 mg/kg gavage): 100.0 ± 91.1 %
- analgesic effect, hot plate, gavage ([4]; 25 and 50 mg/kg gavage, comparable to gabapentin): can prolong the reaction time of hot plate pain
- Pain threshold before administration [5, 6]: 8.92 ± 3.05 s
- Pain threshold after administration ([5]; 10 mg/kg tail vein, 30 min): 17.09 ± 6.05 s
- Pain threshold after administration ([5]; 10 mg/kg tail vein, 60 min): 16.96 ± 6.13 s
- Pain threshold after administration ([5]; 10 mg/kg tail vein, 120 min): 12.36 ± 5.75 s
- Pain threshold before administration ([5]; 15 mg/kg tail vein group): 10.90 ± 3.72 s
- Pain threshold after administration ([5]; 15 mg/kg tail vein, 30 min): 18.88 ± 6.06 s
- Pain threshold after administration ([5]; 15 mg/kg tail vein, 60 min): 13.49 ± 6.53 s
- Pain threshold after administration ([5]; 15 mg/kg tail vein, 120 min): 6.47 ± 5.40 s
- analgesic effect in the hot plate test ([5]; intravenous 10 and 15 mg/kg, 10 mg/kg best, good within 30-60 minutes after injection): good analgesic effect
